For series [1], the target named is T1, ghrelin receptor (Rattus norvegicus, UniProt O08725).
T1 construct: Strips of approximately 1 cm (5 mm wide) of gastric fundus were cut out along the longitudinal axis; from tissue; host or cells: rat gastric fundus strips
As to the kind of experiment: Antagonism of ghrelin on electric-field-stimulated contractions of isolated rat gastric fundus strips (headed 'In Vivo Test'). The note with it: ghrelin 0.1 nM-1 μM concentration-response curves with and without antagonist, contact time 30 minutes, read-out: antagonist activity towards the ghrelin receptor, IC50. How it is done:
The compounds according to the invention underwent in vivo studies.
Male Crl CD BR rats (Charles River, Italy) weighing 150-175 g were housed in a chamber at regulated temperature (22±1° C.) and humidity (55±10%) and with a 12-hour lightness-darkness cycle, for at least 7 days before their use. Feed and water were available ad libitum. The feed was removed 18 hours before sacrificing the animals. The rats were sacrificed by cervical dislocation, and the stomach was removed surgically, opened along the shorter curvature and placed in a Krebs solution (of composition (mM): 118.4 NaCl; 4.7 KCl; 2.5 CaCl2; 3.7 NaH2PO4; 1.2 MgSO4; 25 NaHCO3; 5.6 glucose). The animals were cared for and sacrificed according to the Sanofi-Aventis international code of ethics and the international principles governing the care and treatment of laboratory animals (EEC Directive 86/609, DJL358, 1, 12 Dec. 1987). […] The contractions were recorded by computer with a data recording and analysis system (Power Lab, Chart 5) connected to isotonic transducers (Ugo Basile, Varese, Italy) via preamplifiers (Octal Bridge Amp). […] The pKb values for the antagonists were calculated according to the Cheng-Prusoff equation (Kenakin et al., Competitive Antagonism, Pharmacologic Analysis of Drug-Receptor Interaction, 3rd edition, 331-373, Philadelphia, New York; Raven: Lippincott, 1997).

Experimental findings from patent publication US8202871B2, “Indol-2-one derivatives disubstituted in the 3-position, preparation thereof and therapeutic use thereof” (Sanofi-Aventis, priority 2007, dated 2012) are described below.

One may read the melting point as the temperature of the solid-liquid transition. For orientation: IC50 means the concentration that inhibits the measured activity by half.

T1 sequence (O08725 whole entry): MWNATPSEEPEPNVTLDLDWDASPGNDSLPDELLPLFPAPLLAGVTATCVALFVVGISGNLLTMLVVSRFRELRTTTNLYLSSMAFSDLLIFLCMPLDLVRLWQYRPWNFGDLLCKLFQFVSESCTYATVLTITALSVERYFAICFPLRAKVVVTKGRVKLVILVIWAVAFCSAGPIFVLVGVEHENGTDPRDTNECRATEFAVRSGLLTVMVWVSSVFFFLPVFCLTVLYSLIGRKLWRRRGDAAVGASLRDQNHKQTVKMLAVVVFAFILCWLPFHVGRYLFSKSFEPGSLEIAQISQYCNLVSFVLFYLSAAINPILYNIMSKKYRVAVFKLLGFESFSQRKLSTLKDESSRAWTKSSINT

Regarding `CN1CCN(CC(=O)NC2(c3ccc(Cl)cc3)C(=O)Nc3cc(Cl)c(Cl)cc32)CC1` (single isomer, unassigned; (+)) [Compound 1, (+)-N-[5,6-Dichloro-3-(4-chlorophenyl)-2-oxo-2,3-dihydro-1H-indol-3-yl]-2-(4-methylpiperazin-1-yl)acetamide], the melting point was 207.1 to 207.6 °C. The IC50 in series [1] was 50 nM.
The like results for `CCN1CCC(CC(=O)NC2(c3ccc(C(F)(F)F)cc3)C(=O)Nc3cc(Cl)cc(Cl)c32)CC1` (single isomer, unassigned; (+)) [Compound 2, (+)-N-[4,6-Dichloro-3-(4-trifluoromethylphenyl)-2-oxo-2,3-dihydro-1H-indol-3-yl]-2-(1-ethylpiperid-4-yl)acetamide] were, in that order, 158 to 162 °C and 1 nM.
